Measured values from US20250170112A1, “ADENOSINE LIGANDS FOR THE TREATMENT OF NEUROLOGICAL DISORDERS” (Lucy Therapeutics, Inc., priority 2022, published 2025).

Experiments:
[1] = biological target: T1, human Adenosine A1 receptor (Homo sapiens, UniProt P30542); assay: GTPγS scintillation proximity assay, agonist testing; assay type: biochemical; conditions: agonist activity; membrane extracts of CHO-K1 cells expressing recombinant human A1; read-out: A1AR EC50
T1 construct: host or cells: CHO-K1
T1 sequence (P30542 1-326): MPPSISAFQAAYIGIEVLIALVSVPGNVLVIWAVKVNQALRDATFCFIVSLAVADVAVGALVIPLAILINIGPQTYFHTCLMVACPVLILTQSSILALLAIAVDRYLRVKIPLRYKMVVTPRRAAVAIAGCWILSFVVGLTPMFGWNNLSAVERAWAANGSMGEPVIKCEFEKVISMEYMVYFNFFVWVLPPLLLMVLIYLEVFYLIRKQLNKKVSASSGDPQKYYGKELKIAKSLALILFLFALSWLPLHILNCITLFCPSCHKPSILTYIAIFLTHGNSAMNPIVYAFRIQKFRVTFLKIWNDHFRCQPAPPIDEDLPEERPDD
Protocol: (§1) SPA ^35S-GTPγS experiments were conducted with Epics Therapeutics membrane preparations. cAMP HTRF assays were conducted with recombinant cell lines.
• Assay buffer: 20 mM HEPES pH 7.4; 100 mM NaCl, 10 μg/mL saponin, MgCl2 at optimized concentration for the specific receptor. • Membranes: membrane extracts prepared from CHO-K1 cells expressing recombinant human Adenosine A1 receptor, thawed on ice, diluted in assay buffer and kept on ice. • GDP: diluted in assay buffer at the optimized concentration for the specific receptor Beads: PVT-WGA (Perkin Elmer, RPNQ001), diluted in assay buffer at 50 mg/mL (0.5 mg/10 μL) • GTPγ^35S: (Perkin Elmer, NEG030X), diluted in assay buffer for a final 0.1 nM assay concentration
Protocol for agonist testing: membranes are mixed with GDP (volume:volume). In parallel, GTPγ[^35S] is mixed with the beads (volume:volume) just before starting the reaction. The following reagents are successively added in the wells of an Optiplate (Perkin Elmer): 50 μL of test or reference ligand, 25 μL of the membranes:GDP mix, and 25 μL of the GTPγ[^35S]:beads mix. The plates are covered with a top seal, mixed on an orbital shaker for 2 min, and then incubated for 1 hour at room temperature. Then the plates are centrifuged for 10 min at 2000 rpm, incubated at room temperature and counted for 30 sec/well with a PerkinElmer TopCount™ reader. • Conditions for the GTPγS scintillation proximity assay are shown in Table 14.

human A2B = biological target: T2, human A2B (Homo sapiens, UniProt P29275); assay: cAMP HTRF assay for Gs coupled receptor, agonist test; assay type: cell-based; conditions: agonist activity; HEK293 cells expressing recombinant human A2B; read-out: A2BAR EC50
T2 construct: expressed in transfected cells; host or cells: HEK293
T2 sequence (P29275 1-332): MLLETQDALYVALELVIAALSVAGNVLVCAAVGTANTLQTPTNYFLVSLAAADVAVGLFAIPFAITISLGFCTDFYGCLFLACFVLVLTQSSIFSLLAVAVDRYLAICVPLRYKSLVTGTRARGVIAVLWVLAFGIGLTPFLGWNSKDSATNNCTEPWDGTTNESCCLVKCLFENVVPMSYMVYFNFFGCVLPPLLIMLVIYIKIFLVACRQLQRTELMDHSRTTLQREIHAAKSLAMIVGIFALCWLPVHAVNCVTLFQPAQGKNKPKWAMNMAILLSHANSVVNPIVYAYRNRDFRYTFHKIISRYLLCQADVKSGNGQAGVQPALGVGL
Protocol: as §1
Dose response curves are performed in parallel with the reference compounds.
For agonist test (96 well): 12 μL of cells are mixed with 12 μL of the test compound at increasing concentrations and then incubated 30 min at room temperature. After addition of the lysis buffer containing cAMP-d2 and anti-cAMP cryptate detection reagents, plates are incubated 1 hour incubation at room temperature, and fluorescence ratios are measured according to the manufacturer specification, with the HTRF kit.

Row | SMILES | EC50 [1] | EC50 (human A2B)
1 | N#Cc1c(N)nc(SC[C@@H]2CCOC2)c(C#N)c1-c1ccc(OC2COC2)cc1 [Compound 228] | 1460 nM | 7550 nM
2 | N#Cc1c(SCc2cccnc2)nc(N2CCC2)c(C#N)c1-c1ccc(OCCOC(F)F)cc1 [Compound 262] | > 10000 nM | > 10000 nM
3 | CN(C)CCSc1nc(N)c(C#N)c(-c2ccc(OCCO)cc2)c1C#N [Compound 132] | > 10000 nM | 645 nM
4 | COCCOc1ccc(-c2c(C#N)c(N)nc(SCC(N)=O)c2C#N)cc1 [Compound 136] | 768 nM | 87 nM
5 | N#Cc1c(N)nc(SCc2nccc3[nH]ccc23)c(C#N)c1-c1ccc(OCCO)cc1 [Compound 229] | > 10000 nM | 11 nM
6 | N#Cc1c(N)nc(SCC2COCCO2)c(C#N)c1-c1ccc(OC2COC2)cc1 (stereo not drawn) [Compound 301] | 228 nM | > 10000 nM
7 | COCCOc1ccc(-c2c(C#N)c(SCC3COC3)nc(N3CC(F)C3)c2C#N)cc1 [Compound 267] | 77 nM | > 10000 nM
8 | COCCOc1ccc(-c2c(C#N)c(N)nc(S[C@@H](C)c3cccnc3)c2C#N)cc1 [Compound 247] | 1.19 nM | > 10000 nM
9 | N#Cc1c(SCCO)nc(N2CCCC2)c(C#N)c1-c1ccc(OCCO)cc1 [Compound 95] | 276 nM | 459 nM
10 | N#Cc1c(N)nc(SCc2nc3cc(Cl)ccc3s2)c(C#N)c1-c1ccc(OCCO)cc1 [Compound 208] | 500 nM | 98 nM
11 | N#Cc1c(SCc2cccnn2)nc(C2CC2)c(C#N)c1-c1ccc(OCCOC(F)F)cc1 [Compound 239] | 840 nM | > 10000 nM
12 | Cc1ccc(CSc2nc(N3CCCC3)c(C#N)c(-c3ccc(OCCO)cc3)c2C#N)cn1 [Compound 70] | 469 nM | 209 nM
13 | N#Cc1c(N)nc(SCc2cccc3[nH]ccc23)c(C#N)c1-c1ccc(OC2CCOC2)cc1 (stereo not drawn) [Compound 221] | > 10000 nM | > 10000 nM
14 | N#Cc1c(N)nc(SCCOC(F)F)c(C#N)c1-c1ccc(OCCO)cc1 [Compound 93] | 109 nM | 64 nM
15 | N#Cc1c(SCc2cccnc2)nc(N2CC(O)C2)c(C#N)c1-c1ccc(OCCOC(F)F)cc1 [Compound 265] | 12.5 nM | > 10000 nM
16 | CN(C)C(=O)CSc1nc(N)c(C#N)c(-c2ccc(OCCO)cc2)c1C#N [Compound 138] | 891 nM | 2460 nM
17 | N#Cc1c(SCCO)nc(N2CCC2)c(C#N)c1-c1ccc(OCCO)cc1 [Compound 90] | 347 nM | 869 nM
18 | N#Cc1c(N)nc(OCc2cccnc2)c(C#N)c1-c1ccc(OCCO)cc1 [Compound 159] | 41 nM | 3.3 nM
19 | CC(Sc1nc(N)c(C#N)c(-c2ccc(OC3COC3)cc2)c1C#N)C1COC1 (stereo not drawn) [Compound 285] | 958 nM | > 10000 nM
20 | COCCOc1ccc(-c2c(C#N)c(SCCO)nc(N3CCCC3)c2C#N)cc1 [Compound 117] | 997 nM | > 10000 nM
21 | N#Cc1c(N)nc(SCC2CCCO2)c(C#N)c1-c1ccc(OCCO)cc1 (stereo not drawn) [Compound 141] | 569 nM | 149 nM
22 | COCCOc1ccc(-c2c(C#N)c(SCC3COC3)nc(N3CC(F)(F)C3)c2C#N)cc1 [Compound 269] | 615 nM | > 10000 nM
23 | N#Cc1c(N)nc(SCC2(F)COC2)c(C#N)c1-c1ccc(OCCO)cc1 [Compound 320] | 230 nM | > 10000 nM
24 | COCCOc1ccc(-c2c(C#N)c(N)nc(SCc3cccc(OC(F)(F)F)c3)c2C#N)cc1 [Compound 35] | 238 nM | > 10000 nM
25 | N#Cc1c(SCc2cccnc2)nc(N2CC(F)(F)C2)c(C#N)c1-c1ccc(OCCOC(F)F)cc1 [Compound 264] | > 10000 nM | > 10000 nM
26 | COCCOc1ccc(-c2c(C#N)c(N)nc(SCc3ccc4c(c3)OCC4)c2C#N)cc1 [Compound 16] | 7600 nM | > 10000 nM

Further lines, results first:

Row | EC50 [1] | EC50 (human A2B) | SMILES
27 | 11 nM | 0.7 nM | N#Cc1c(N)nc(SCc2ccnnc2)c(C#N)c1-c1ccc(OCCO)cc1 [Compound 162]
28 | 55.9 nM | > 10000 nM | N#Cc1c(SCC2COC2)nc(N2CC(F)C2)c(C#N)c1-c1ccc(OCCO)cc1 [Compound 275]
29 | 368 nM | 159 nM | N#Cc1c(N)nc(NCc2cccnc2)c(C#N)c1-c1ccc(OCCO)cc1 [Compound 161]
30 | 282 nM | > 10000 nM | COCCOc1ccc(-c2c(C#N)cnc(SCc3cccnc3)c2C#N)cc1 [Compound 83, 4-[4-(2-Methoxyethoxy)phenyl]-2-(3-pyridylmethylthio)-pyridine-3,5-dicarbonitrile]
31 | > 10000 nM | 13.4 nM | N#Cc1c(N)nc(SCc2cccc3[nH]cnc23)c(C#N)c1-c1ccc(OCCO)cc1 [Compound 5]
32 | 643 nM | > 10000 nM | CNC(=O)CSc1nc(N2CCC2)c(C#N)c(-c2ccc(OCCOC)cc2)c1C#N [Compound 78]
33 | 161 nM | 925 nM | CC(=O)NCCSc1nc(N)c(C#N)c(-c2ccc(OCCO)cc2)c1C#N [Compound 119]
34 | 311 nM | 65 nM | CC(C)(O)COc1ccc(-c2c(C#N)c(SCc3cccnc3)nc(N3CCC3)c2C#N)cc1 [Compound 49]
35 | > 10000 nM | 272 nM | N#Cc1c(N)nc(SCC2CCCOC2)c(C#N)c1-c1ccc(OCCO)cc1 (stereo not drawn) [Compound 13]
36 | 25 nM | > 10000 nM | COCCOc1ccc(-c2c(C#N)c(N)nc(SCCO)c2C#N)cc1 [Compound 192]
37 | 21.3 nM | > 10000 nM | N#Cc1c(N)nc(SCC2CCOC2)c(C#N)c1-c1ccc(OC2CC(O)C2)cc1 (stereo not drawn) [Compound 324]
38 | > 10000 nM | 42.6 nM | Cc1nc(SCCC(F)(F)F)c(C#N)c(-c2ccc(OCCO)cc2)c1C#N [Compound 48]
39 | 0.903 nM | 0.335 nM | N#Cc1c(N)nc(SCc2cccnc2)c(C#N)c1-c1ccc(O[C@H]2CCOC2)cc1 [Compound 240]
40 | > 10000 nM | > 10000 nM | COCCOc1ccc(-c2c(C#N)c(OC)nc(SCc3cccnc3)c2C#N)cc1 [Compound 283]
41 | > 10000 nM | > 10000 nM | N#Cc1c(SCc2cccnc2)nc(N2CC(O)C2)c(C#N)c1-c1ccc(OC(F)(F)CO)cc1 [Compound 261]
42 | 3.5 nM | > 10000 nM | N#Cc1c(N)nc(SCc2cccc3[nH]ccc23)c(C#N)c1-c1ccc(OC2COC2)cc1 [Compound 22, 2-Amino-6-(1H-indol-4-ylmethylsulfanyl)-4-[4-(oxetan-3-yloxy)phenyl]pyridine-3,5-dicarbonitrile]
43 | 20 nM | 0.9 nM | N#Cc1c(N)nc(SCc2cncnc2)c(C#N)c1-c1ccc(OCCO)cc1 [Compound 175]
44 | 55 nM | 8560 nM | COCCOc1ccc(-c2c(C#N)c(N)nc(SCCOC)c2C#N)cc1 [Compound 147]
45 | 17.6 nM | > 10000 nM | COCCOc1ccc(-c2c(C#N)c(N)nc(SCc3cccc4[nH]ccc34)c2C#N)cc1 [Compound 67]
46 | > 10000 nM | 435 nM | N#Cc1c(SCc2cccnc2)nc(N2CC(F)C2)c(C#N)c1-c1ccc(OC(F)(F)CO)cc1 [Compound 255]
47 | 92 nM | > 10000 nM | COCCOc1ccc(-c2c(C#N)c(N)nc(SCc3ccccc3)c2C#N)cc1 [Compound 152]
48 | 2.05 nM | > 10000 nM | COCCOc1ccc(-c2c(C#N)c(Sc3cccnc3)nc(N3CC(F)C3)c2C#N)cc1 [Compound 245]
